Experiment [1] concerns Molt 4/HTLV IIIB. The experiment in a line: Inhibition of the release of virus from Molt 4 cells chronically infected with HIV. It is filed as cell-based, HIV (HTLVIIIB). As for the experimental part: Inhibition of the Release of Virus from Molt 4 Cells Chronically Infected with HIV (Molt 4/HTLV IIIB)
A Molt 4 cell line chronically infected with HIV, that is with HTLVIIIB, was established (Molt 4/HTLVIIIB). The cells were washed twice with growth medium (RPMI-1640 medium containing 10% v/v heat-inactivated fetal calf serum). The washed cells were then inoculated into growth medium at a density of 2×10^5 cells/ml, in the presence of selected concentrations of test compounds, at 37° C., and cultured under an atmosphere of 5% carbon dioxide.
After 48 hours, the test cultures were spun down at 1000×g for 3 minutes, and the supernatant was collected. Polyethylene glycol 6000 was added to the supernatant to a final concentration of 10% w/v, and the resulting solution was left to stand for 6 hours on ice. Virions precipitated by this procedure were subsequently obtained as a pellet by centrifuging the treated supernatants for 30 minutes at 10000×g. The amount of HIV antigen in the pellets was then determined using a commercial enzyme immunoassay (EIA) system [HIV antigen EIA kit, available from Abbot].
IC50 (the minimum concentration of test compound sufficient to reduce the amount of HIV antigen production by 50%, as determined by the EIA system) was used as a measure of anti-HIV activity.

The target of experiment [2] is HIV pol protease (Human immunodeficiency virus type 1 group M subtype B, UniProt P03366). The experiment in a line: Assay of the inhibition of HIV pol protease (synthetic substrate TE-2, HPLC of TE-3).
Protocol: The Ki, that is the dissociation constant of the enzyme-inhibitor complex, measured according to the equation [formula]
A reaction mixture containing 1 mM or 1.5 mM of the substrate TE-2, having the structure described in European Patent Publication No. 498,680, 1 μl of the desired concentration of the compound to be tested (dissolved in dimethyl sulfoxide comprising 20% v/v water), 2 μl of the enzyme solution prepared as described in step (c), above, and buffer solution [50 mM tris HCl (pH 6.0), 0.25M sodium chloride, 0.1 mM ethylenediaminetetraacetic acid, 0.1 mM Triton X-100] to form 10 μl in total, was incubated for 30 minutes at 37° C.
The reaction was Stopped by the addition of 250 μl of a 0.1% w/v solution of aqueous trifluoroacetic acid and 10% v/v acetonitrile. The reaction mixture was then subjected to Sep-pak light™ chromatography (Waters Co., Milford, Mass., USA), and the fractions passing through the column were collected.
The substrate TE-2 is decomposed by the HIV protease to form a shortened peptide of four amino acids, (TE-3; having the structure described in European Patent Publication No. 498,680). The amount of TE-3 formed was assayed quantitatively using a high performance liquid chromatography (HPLC) column [ODS-120T (Trade Mark), 4.6 mm in inner diameter ×250 mm, To-So Co.] using a mixture of 9% acetonitrile-0.05% trifluoroacetic acid as the eluting solvent.
The Ki in nM was calculated according to the method of Michaelis-Menten using the equation given above.

We go through nine compounds from patent US5629406A, “Inhibitors of HIV protease” (Sankyo Company, Limited, priority 1992, dated 1997).

≈ marks a conversion by molar mass, not a printed value. Structures can show the parent of a compound that is named as a salt. Where two headings read alike, the source gives them in different places.

Broadly, the Ki is the dissociation constant of the complex between target and ligand, obtained from inhibition or displacement. Take `CC(C)(C)NC(=O)[C@@H]1C[C@H](Cl)CN1C(=O)[C@@H](O)[C@H](Cc1ccccc1)NC(=O)[C@H](CC(N)=O)NC(=O)c1cnc2ccccc2n1` [Example 14, (4S)-1-{(2S,3S)-3-[N^2-(2-Quinoxalinecarbonyl)-L-asparaginyl]amino-2-hydroxy-4-phenylbutyryl}-N-t-butyl-4-chloro-L-prolinamide]: the IC50 in experiment [1] (Human immunodeficiency virus 1, IIIB, MOLT-4, 48 h, read-out: IC50 (concentration reducing HIV antigen production by 50%)) came to 0.39 µg/mL (≈ 0.598 µM). In experiment [2], this compound gave an inhibition constant (Ki) of 4.7 nM. Take `CC(C)(C)NC(=O)[C@@H]1C[C@H](Cl)CN1C(=O)[C@@H](O)[C@H](Cc1ccccc1)NC(=O)[C@H](CC(N)=O)NC(=O)OCc1ccccc1` [Example 1, (4S)-1-[(2S,3S)-3-(N^2 -Benzyloxycarbonyl-L-asparaginyl)amino-2-hydroxy-4-phenylbutyryl]-N-t-butyl-4-chloro-L-prolinamide]: in experiment [2], the affinity, expressed as Ki, was 8 nM. For `CC(C)(C)NC(=O)[C@@H]1CCCN1C(=O)[C@@H](O)[C@H](Cc1ccccc1)NC(=O)[C@H](CC(N)=O)NC(=O)COc1ccc(NC(=O)OCc2ccccc2)cc1` [Example 16, 1-[(2S,3S)-3-{N^2-[4-(Benzyloxycarbonylamino)phenoxyacetyl]-L-asparaginyl}amino-2-hydroxy-4-phenylbutyryl]-N-t-butyl-L-prolinamide], the affinity in experiment [2], expressed as Ki, was 14 nM. `CN(C)c1ccc(OCC(=O)N[C@@H](CC(N)=O)C(=O)N[C@@H](Cc2ccccc2)[C@H](O)C(=O)N2CCC[C@H]2C(=O)NC(C)(C)C)cc1` [Example 21, 1-[(2S,3S)-3-{N^2-[4-(N,N-Dimethylamino)phenoxyacetyl]-L-asparaginyl}amino-2-hydroxy-4-phenylbutyryl]-N-t-butyl-L-prolinamide] came in with an inhibition constant Ki in experiment [2] of 37 nM. Consider `CNc1ccc(OCC(=O)N[C@@H](CC(N)=O)C(=O)N[C@@H](Cc2ccccc2)[C@H](O)C(=O)N2CCC[C@H]2C(=O)NC(C)(C)C)cc1` [Example 20, 1-[(2S,3S)-3-{N^2-[4-(Methylamino)phenoxyacetyl]-L-asparaginyl}amino-2-hydroxy-4-phenylbutyryl]-N-t-butyl-L-prolinamide hydrochloride], for which the Ki in experiment [2] was 49 nM. As for `CC(C)(C)NC(=O)[C@@H]1CCCN1C(=O)[C@@H](O)[C@H](Cc1ccccc1)NC(=O)[C@H](CC(N)=O)NC(=O)COc1ccc(N)cc1` [Example 17, 1-{(2S,3S)-3-[N^2-(4-Aminophenoxyacetyl)-L-asparaginyl)amino-2-hydroxy-4-phenylbutyryl]-N-t-butyl-L-prolinamide hydrochloride], the Ki in experiment [2] came to 18.5 nM. Consider `CC(C)(C)NC(=O)[C@@H]1C[C@@H]2CCCC[C@@H]2CN1C[C@@H](O)[C@H](Cc1ccccc1)NC(=O)[C@H](CC(N)=O)NC(=O)c1ccc2ccccc2n1` [Ro31-8959, 3-t-butylaminocarbonyl-2-{(2R, 3S)-3-[(N-2'-quinolinecarbonyl-L-asparaginyl)amino]-2-hydroxy-4-phenylbutyl}-(3S, 4aS, 8aS)-decahydroisoquinoline, reference compound], for which, in experiment [1] (Molt 4/HTLVIIIB cells, 48 hours, HIV antigen in precipitated virions by EIA), the “IC50 (concentration reducing HIV antigen production by 50%)” value is over 20.0 µg/mL. In addition, the Ki in experiment [2] (1 mM or 1.5 mM substrate TE-2, pH 6.0, 30 minutes at 37° C., calculated by Michaelis-Menten) was 58 nM.

In experiment [2], `CC(C)(C)NC(=O)[C@@H]1C[C@@H](O)CN1C(=O)[C@@H](O)[C@H](Cc1ccccc1)NC(=O)[C@H](CC(N)=O)NC(=O)OCc1ccccc1` [Example 4, (4R)-1-[(2S,3S)-3-(N^2 -Benzyloxycarbonyl-L-asparaginyl)amino-2-hydroxy-4-phenylbutyryl]-N-t-butyl-4-hydroxy-L-prolinamide] gave a Ki of 56 nM. In experiment [2], `CC(C)(C)NC(=O)[C@@H]1CCCN1C(=O)[C@@H](O)[C@H](Cc1ccccc1)NC(=O)[C@H](CC(N)=O)NC(=O)COc1ccc(NC(=O)CN)cc1` [Example 18, 1-[(2S,3S)-3-{N^2-[4-(Glycylamino)phenoxyacetyl]-L-asparaginyl}amino-2-hydroxy-4-phenylbutyryl]-N-t-butyl-L-prolinamide hydrochloride] showed a Ki of 30 nM.
